# Data from publication PMC5218480 (PLoS ONE, 2017).
# Test system: MV-4-11 cells
# Assay: Gene expression microarray analysis (Affymetrix PrimeView) and GSEA
# Type: cell-based, human
# Design: RFU PODN (11730768_x_at) / Fold change /veh PODN (11730768_x_at) / RFU LINC00158 (11744669_a_at) / Fold change /veh LINC00158 (11744669_a_at) / RFU DUSP10 (11751237_a_at) / Fold change /veh DUSP10 (11751237_a_at) / RFU ID3 (11757404_x_at) / Fold change /veh ID3 (11757404_x_at) / RFU PLEKHG5 (11737974_s_at) / Fold change /veh PLEKHG5 (11737974_s_at) / RFU LRRC4B (11730491_at) / Fold change /veh LRRC4B (11730491_at) / RFU GIMAP4 (11747438_a_at) / Fold change /veh GIMAP4 (11747438_a_at) / RFU KRT8 (11758183_x_at) / Fold change /veh KRT8 (11758183_x_at) / RFU CNN1 (11734310_a_at) / Fold change /veh CNN1 (11734310_a_at) / RFU VPS37D (11726825_at) / Fold change /veh VPS37D (11726825_at) / RFU C10orf10 (11716522_x_at) / Fold change /veh C10orf10 (11716522_x_at) / RFU KIR2DL2 /// KIR2DL4 /// KIR2DL5A /// KIR2DL5B /// KIR2DS1 /// KIR2DS2 /// KIR2DS3 /// KIR2DS4 /// KIR3DL3 /// KIR3DL3 /// KIR3DS1 (11738374_at) / Fold change /veh KIR2DL2 /// KIR2DL4 /// KIR2DL5A /// KIR2DL5B /// KIR2DS1 /// KIR2DS2 /// KIR2DS3 /// KIR2DS4 /// KIR3DL3 /// KIR3DL3 /// KIR3DS1 (11738374_at) / RFU C1QL1 (11718748_at) / Fold change /veh C1QL1 (11718748_at) / RFU TMPRSS4 (11747572_a_at) / Fold change /veh TMPRSS4 (11747572_a_at) / RFU HAMP (11756126_x_at) / Fold change /veh HAMP (11756126_x_at) / RFU RNFT2 (11725882_a_at) / Fold change /veh RNFT2 (11725882_a_at) / RFU NR4A2 (11747474_a_at) / Fold change /veh NR4A2 (11747474_a_at) / RFU ABCC12 (11746883_a_at) / Fold change /veh ABCC12 (11746883_a_at) / RFU TMEM136 (11760407_x_at) / Fold change /veh TMEM136 (11760407_x_at) / RFU CLDN22 /// WWC2 (11732394_at) / Fold change /veh CLDN22 /// WWC2 (11732394_at) / RFU HLA-DPB1 (11760878_x_at) / Fold change /veh HLA-DPB1 (11760878_x_at) / RFU SPINT1 (11716480_a_at) / Fold change /veh SPINT1 (11716480_a_at) / RFU GAP43 (11754022_s_at) / Fold change /veh GAP43 (11754022_s_at) / RFU A4GNT (11735810_at) / Fold change /veh A4GNT (11735810_at) / RFU PRB3 (11715151_x_at) / Fold change /veh PRB3 (11715151_x_at) / RFU TUBB4B (11761932_at) / Fold change /veh TUBB4B (11761932_at) / RFU CAPN14 (11732068_a_at) / Fold change /veh CAPN14 (11732068_a_at) / RFU TMCC2 (11721928_a_at) / Fold change /veh TMCC2 (11721928_a_at) / RFU IRGQ (11745062_a_at) / Fold change /veh IRGQ (11745062_a_at) / RFU FAM174B (11720279_a_at) / Fold change /veh FAM174B (11720279_a_at) / RFU TMPRSS4 (11748680_a_at) / Fold change /veh TMPRSS4 (11748680_a_at) / RFU FAM212B (11763350_a_at) / Fold change /veh FAM212B (11763350_a_at) / RFU PLEKHG5 (11743358_a_at) / Fold change /veh PLEKHG5 (11743358_a_at) / RFU ZSCAN30 (11745921_a_at) / Fold change /veh ZSCAN30 (11745921_a_at) / RFU CMKLR1 (11741424_a_at) / Fold change /veh CMKLR1 (11741424_a_at) / RFU LOC101060620 /// MAPK8IP1 (11723275_at) / Fold change /veh LOC101060620 /// MAPK8IP1 (11723275_at) / RFU SPTSSB (11747773_x_at) / Fold change /veh SPTSSB (11747773_x_at) / RFU PRSS12 (11739890_at) / Fold change /veh PRSS12 (11739890_at) / RFU BIN1 (11741810_x_at) / Fold change /veh BIN1 (11741810_x_at) / RFU WNT11 (11732464_a_at) / Fold change /veh WNT11 (11732464_a_at) / RFU C10orf10 (11716521_a_at) / Fold change /veh C10orf10 (11716521_a_at) / RFU C5orf56 (11738089_at) / Fold change /veh C5orf56 (11738089_at) / RFU CYB561 (11721691_x_at) / Fold change /veh CYB561 (11721691_x_at) / RFU ANKRD19P (11752326_a_at) / Fold change /veh ANKRD19P (11752326_a_at) / RFU OR2T12 /// OR2T33 /// OR2T8 (11738714_s_at) / Fold change /veh OR2T12 /// OR2T33 /// OR2T8 (11738714_s_at) / RFU VCAN (11748164_a_at) / Fold change /veh VCAN (11748164_a_at) / RFU JSRP1 (11732532_at) / Fold change /veh JSRP1 (11732532_at) / RFU KRTAP10-11 (11738290_x_at) / Fold change /veh KRTAP10-11 (11738290_x_at) / RFU MYO3A (11730013_a_at) / Fold change /veh MYO3A (11730013_a_at) / RFU EBF3 (11725865_a_at) / Fold change /veh EBF3 (11725865_a_at) / RFU CAMK2N1 (11719241_x_at) / Fold change /veh CAMK2N1 (11719241_x_at) / RFU C5orf56 (11738088_a_at) / Fold change /veh C5orf56 (11738088_a_at) / RFU OLFML3 (11715873_a_at) / Fold change /veh OLFML3 (11715873_a_at) / RFU LOC100653217 /// NTM (11731650_a_at) / Fold change /veh LOC100653217 /// NTM (11731650_a_at) / RFU MAPK11 (11762145_a_at) / Fold change /veh MAPK11 (11762145_a_at) / RFU FIZ1 (11724087_x_at) / Fold change /veh FIZ1 (11724087_x_at) / RFU OASL (11726364_x_at) / Fold change /veh OASL (11726364_x_at) / RFU SOX15 (11748057_x_at) / Fold change /veh SOX15 (11748057_x_at) / RFU CD79A (11719716_a_at) / Fold change /veh CD79A (11719716_a_at) / RFU HIST1H1D (11736915_at) / Fold change /veh HIST1H1D (11736915_at) / RFU CASKIN2 (11723855_a_at) / Fold change /veh CASKIN2 (11723855_a_at) / RFU LOC730098 (11760151_x_at) / Fold change /veh LOC730098 (11760151_x_at) / RFU OR4N2 (11742367_at) / Fold change /veh OR4N2 (11742367_at) / RFU PRRT2 (11749266_a_at) / Fold change /veh PRRT2 (11749266_a_at) / RFU SNX32 (11753110_a_at) / Fold change /veh SNX32 (11753110_a_at) / RFU CDHR5 (11726645_a_at) / Fold change /veh CDHR5 (11726645_a_at) / RFU RCAN1 (11760418_a_at) / Fold change /veh RCAN1 (11760418_a_at) / RFU FAM167A (11723789_a_at) / Fold change /veh FAM167A (11723789_a_at) / RFU FAM26E (11764081_at) / Fold change /veh FAM26E (11764081_at) / RFU ISYNA1 (11749810_s_at) / Fold change /veh ISYNA1 (11749810_s_at) / RFU ACY1 (11761880_at) / Fold change /veh ACY1 (11761880_at) / RFU 11764098_at / Fold change /veh 11764098_at / RFU SAMD14 (11745864_x_at) / Fold change /veh SAMD14 (11745864_x_at) / RFU NPB (11741838_a_at) / Fold change /veh NPB (11741838_a_at) / RFU TMPRSS6 (11731388_a_at) / Fold change /veh TMPRSS6 (11731388_a_at) / RFU KRTAP10-2 (11738614_at) / Fold change /veh KRTAP10-2 (11738614_at) / RFU ARHGAP8 /// PRR5-ARHGAP8 (11727945_x_at) / Fold change /veh ARHGAP8 /// PRR5-ARHGAP8 (11727945_x_at) / RFU KRTAP5-7 /// NADSYN1 (11734609_at) / Fold change /veh KRTAP5-7 /// NADSYN1 (11734609_at) / RFU RASL12 (11751679_a_at) / Fold change /veh RASL12 (11751679_a_at) / RFU CDKN2B (11736163_a_at) / Fold change /veh CDKN2B (11736163_a_at) / RFU PRF1 (11729649_at) / Fold change /veh PRF1 (11729649_at) / RFU, ZNF638 /// ZNF638-IT1 / Fold change vs veh, ZNF638 /// ZNF638-IT1 / RFU, PANK3 / Fold change vs veh, PANK3 / RFU, SH3YL1 / Fold change vs veh, SH3YL1 / RFU, ZEB2 / Fold change vs veh, ZEB2 / RFU, NRIP1 / Fold change vs veh, NRIP1 / RFU, PTTG1IP / Fold change vs veh, PTTG1IP / RFU, CAPN2 / Fold change vs veh, CAPN2 / RFU, MED14 / Fold change vs veh, MED14 / RFU, SNORA58 / Fold change vs veh, SNORA58 / RFU, C1orf63 / Fold change vs veh, C1orf63 / RFU, LRRFIP1 / Fold change vs veh, LRRFIP1 / RFU, NDUFAF7 / Fold change vs veh, NDUFAF7 / RFU, SLC12A2 / Fold change vs veh, SLC12A2 / RFU, IBTK / Fold change vs veh, IBTK / RFU, ESF1 / Fold change vs veh, ESF1 / Fold change vs veh, TMEM50B / RFU, TAOK1 / Fold change vs veh, TAOK1 / RFU, ACBD3 / Fold change vs veh, ACBD3 / RFU, TMA16 / Fold change vs veh, TMA16 / RFU, RWDD3 / Fold change vs veh, RWDD3 / RFU, BCAT1 / Fold change vs veh, BCAT1 / RFU, EDEM3 / Fold change vs veh, EDEM3 / RFU, TMEM33 / Fold change vs veh, TMEM33 / RFU, WDR75 / Fold change vs veh, WDR75 / RFU, AHCTF1 / Fold change vs veh, AHCTF1 / RFU, TFRC / Fold change vs veh, TFRC / RFU, ZDHHC17 / Fold change vs veh, ZDHHC17 / RFU, NOM1 / Fold change vs veh, NOM1 / RFU, ARL8B / Fold change vs veh, ARL8B / RFU, ZBTB11 / Fold change vs veh, ZBTB11 / RFU, TAMM41 / Fold change vs veh, TAMM41 / RFU, KIAA1704 /// LOC100996395 / Fold change vs veh, KIAA1704 /// LOC100996395 / RFU, ING1 / Fold change vs veh, ING1 / RFU, TRMT61B / Fold change vs veh, TRMT61B / RFU, FUBP3 / Fold change vs veh, FUBP3 / RFU, TP53 / Fold change vs veh, TP53 / RFU, TNKS2 / Fold change vs veh, TNKS2 / RFU, ZFP14 / Fold change vs veh, ZFP14 / RFU, ACTR2 / Fold change vs veh, ACTR2 / RFU, PPP3R1 / Fold change vs veh, PPP3R1 / RFU, PIK3R1 / Fold change vs veh, PIK3R1 / RFU, HNRNPA1 / Fold change vs veh, HNRNPA1 / RFU, RNF170 / Fold change vs veh, RNF170 / RFU, ZNF28 / Fold change vs veh, ZNF28 / RFU, RNGTT / Fold change vs veh, RNGTT / RFU, OGT / Fold change vs veh, OGT / RFU, BRD1 / Fold change vs veh, BRD1 / RFU, MARS / Fold change vs veh, MARS / RFU, ZNF655 / Fold change vs veh, ZNF655 / RFU, FAHD1 / Fold change vs veh, FAHD1 / RFU, BDP1 / Fold change vs veh, BDP1 / RFU, LRRCC1 / Fold change vs veh, LRRCC1 / RFU, ARID1A / Fold change vs veh, ARID1A / RFU, ZNF146 / Fold change vs veh, ZNF146 / RFU, ZNF330 / Fold change vs veh, ZNF330 / RFU, GPN3 / Fold change vs veh, GPN3 / RFU, C9orf123 / Fold change vs veh, C9orf123 / RFU, N4BP2L2 / Fold change vs veh, N4BP2L2 / RFU, ARFIP1 / Fold change vs veh, ARFIP1 / RFU, FAM179B / Fold change vs veh, FAM179B / RFU, BCL10 / Fold change vs veh, BCL10 / RFU, UHRF1BP1L / Fold change vs veh, UHRF1BP1L / RFU, BET1 / Fold change vs veh, BET1 / RFU, CNOT2 / Fold change vs veh, CNOT2 / RFU, ZNF268 / Fold change vs veh, ZNF268 / Fold change vs veh, ZNF507 / RFU, DGCR2 / Fold change vs veh, DGCR2 / RFU, WDSUB1 / Fold change vs veh, WDSUB1 / Fold change vs veh, HSP90B1 /// MIR3652 / RFU, ADSS / Fold change vs veh, ADSS / RFU, GK / Fold change vs veh, GK / RFU, ZNF148 / Fold change vs veh, ZNF148 / RFU, TAF9 / Fold change vs veh, TAF9 / RFU, SLC1A5 / Fold change vs veh, SLC1A5 / RFU, SLMO2 / Fold change vs veh, SLMO2 / RFU, ABCC4 / Fold change vs veh, ABCC4 / RFU, LOC101060439 /// RAP1B / Fold change vs veh, LOC101060439 /// RAP1B / RFU, RFX7 / Fold change vs veh, RFX7 / RFU, GTPBP10 / Fold change vs veh, GTPBP10 / RFU, CNEP1R1 / Fold change vs veh, CNEP1R1 / RFU, BIVM-ERCC5 /// ERCC5 / Fold change vs veh, BIVM-ERCC5 /// ERCC5 / RFU, ILF3 / Fold change vs veh, ILF3 / RFU 11762660_at / Fold change /veh 11762660_at / RFU VCAN (11757783_s_at) / Fold change /veh VCAN (11757783_s_at) / RFU DDX43 (11728927_at) / Fold change /veh DDX43 (11728927_at) / RFU KRT8 (11758188_x_at) / Fold change /veh KRT8 (11758188_x_at) / RFU NKD1 (11759106_at) / Fold change /veh NKD1 (11759106_at) / RFU SRD5A1 (11742802_a_at) / Fold change /veh SRD5A1 (11742802_a_at) / RFU TPSAB1 /// TPSB2 (11721975_s_at) / Fold change /veh TPSAB1 /// TPSB2 (11721975_s_at) / RFU GSTM3 (11746129_a_at) / Fold change /veh GSTM3 (11746129_a_at) / RFU IL23R (11737362_x_at) / Fold change /veh IL23R (11737362_x_at) / RFU TMEM51 (11727254_a_at) / Fold change /veh TMEM51 (11727254_a_at) / RFU PIWIL2 (11732686_x_at) / Fold change /veh PIWIL2 (11732686_x_at) / RFU ORM1 (11744905_x_at) / Fold change /veh ORM1 (11744905_x_at) / RFU CCDC152 (11743942_at) / Fold change /veh CCDC152 (11743942_at) / RFU ECM1 (11717891_a_at) / Fold change /veh ECM1 (11717891_a_at) / RFU IL23R (11748794_a_at) / Fold change /veh IL23R (11748794_a_at) / RFU TNFAIP8L3 (11732012_x_at) / Fold change /veh TNFAIP8L3 (11732012_x_at) / RFU MBOAT4 (11741988_at) / Fold change /veh MBOAT4 (11741988_at) / RFU 11764193_at / Fold change /veh 11764193_at / RFU TMEM53 (11763286_at) / Fold change /veh TMEM53 (11763286_at) / RFU MAGEB2 (11727129_at) / Fold change /veh MAGEB2 (11727129_at) / RFU TMEM200A (11744735_a_at) / Fold change /veh TMEM200A (11744735_a_at) / RFU CCDC152 (11751479_a_at) / Fold change /veh CCDC152 (11751479_a_at) / RFU FAM211A (11726209_a_at) / Fold change /veh FAM211A (11726209_a_at) / RFU RGS16 (11746705_a_at) / Fold change /veh RGS16 (11746705_a_at) / RFU VCAN (11755009_s_at) / Fold change /veh VCAN (11755009_s_at) / RFU RHOB (11743442_s_at) / Fold change /veh RHOB (11743442_s_at) / RFU RGS16 (11720943_a_at) / Fold change /veh RGS16 (11720943_a_at) / RFU RGS16 (11720944_at) / Fold change /veh RGS16 (11720944_at) / RFU, VPS4B / Fold change vs veh, VPS4B / RFU, CREB1 / Fold change vs veh, CREB1 / RFU, DNAJC13 / Fold change vs veh, DNAJC13 / RFU, GNAQ / Fold change vs veh, GNAQ / RFU, CDK5R1 / Fold change vs veh, CDK5R1 / RFU, ZRANB3 / Fold change vs veh, ZRANB3 / RFU, CUL4A / Fold change vs veh, CUL4A / RFU, CCNY / Fold change vs veh, CCNY / RFU, UFL1 / Fold change vs veh, UFL1 / RFU, COG3 / Fold change vs veh, COG3 / RFU, DIAPH2 / Fold change vs veh, DIAPH2 / RFU, SKA2 / Fold change vs veh, SKA2 / RFU, AFF3 / Fold change vs veh, AFF3 / RFU, LMF1 / Fold change vs veh, LMF1 / RFU, IPO11 / Fold change vs veh, IPO11 / RFU, DFFB / Fold change vs veh, DFFB / RFU, FOXP1 / Fold change vs veh, FOXP1 / RFU, CARD8 / Fold change vs veh, CARD8 / RFU, STRN3 / Fold change vs veh, STRN3 / RFU, ADK / Fold change vs veh, ADK / RFU, RASSF2 / Fold change vs veh, RASSF2 / RFU, WIPF1 / Fold change vs veh, WIPF1 / RFU, LARP1B / Fold change vs veh, LARP1B / RFU, RASA1 / Fold change vs veh, RASA1 / RFU, RB1 / Fold change vs veh, RB1 / RFU, PPFIA1 / Fold change vs veh, PPFIA1 / RFU, MAT2A / Fold change vs veh, MAT2A / RFU, CCT5 / Fold change vs veh, CCT5 / RFU, WDR92 / Fold change vs veh, WDR92 / RFU, CUX1 / Fold change vs veh, CUX1 / RFU, TTC7A / Fold change vs veh, TTC7A / RFU, TMEM135 / Fold change vs veh, TMEM135 / RFU, DEPTOR / Fold change vs veh, DEPTOR / RFU, CPM / Fold change vs veh, CPM / RFU, DNAJB6 / Fold change vs veh, DNAJB6 / RFU, CACNA2D3 / Fold change vs veh, CACNA2D3 / RFU, DTX4 / Fold change vs veh, DTX4 / RFU, TFCP2 / Fold change vs veh, TFCP2 / RFU, GMCL1 /// GMCL1P1 / Fold change vs veh, GMCL1 /// GMCL1P1 / RFU, AEBP2 / Fold change vs veh, AEBP2 / RFU, SNHG1 /// SNORD22 /// SNORD25 /// SNORD26 /// SNORD27 /// SNORD28 /// SNORD29 /// SNORD31 / Fold change vs veh, SNHG1 /// SNORD22 /// SNORD25 /// SNORD26 /// SNORD27 /// SNORD28 /// SNORD29 /// SNORD31 / Fold change (Aza/veh), C12orf56 (ProbeSet 11735607_a_at) / Fold change (ACY-1035/veh), C12orf56 (ProbeSet 11735607_a_at) / Fold change (Aza/veh), FGFR1OP (ProbeSet 11751329_s_at) / Fold change (ACY-1035/veh), FGFR1OP (ProbeSet 11751329_s_at) / Fold change (Aza/veh), VPS36 (ProbeSet 11739960_a_at) / Fold change (ACY-1035/veh), VPS36 (ProbeSet 11739960_a_at) / RFU SYPL1 (11715823_x_at) / Fold change /veh SYPL1 (11715823_x_at) / RFU IGFBP7 (11715501_s_at) / Fold change /veh IGFBP7 (11715501_s_at) / RFU REEP3 (11722064_at) / Fold change /veh REEP3 (11722064_at) / RFU IGLL1 (11728026_x_at) / Fold change /veh IGLL1 (11728026_x_at): dose or concentration left out as unconfirmed
# Settings: MV-4-11 cells, 48 hours
compound,measurement,value
Nc1ncn([C@@H]2O[C@H](CO)[C@@H](O)[C@H]2O)c(=O)n1 [azacitidine],Fold change /veh RHOB (11743442_s_at),1.27
